From US20120202822A1, “COMBINATION” (priority 2009, published 2012)

Legend:
Experiment in all cases: Fixed Ratio Drug Combination Assay, cell proliferation (CellTiter Glo)
Format in all cases: cell-based, human
COLO205 = conditions: for Ymin/T0: 72 hours; for IC50: Homo sapiens, COLO 205, 72 hours, read-out: gIC50
Procedure: (§1) Combination drug tests with Compounds A and B were conducted using a panel of cell lines from human colon cancers (n=25) (Table 1). Cell lines were purchased commercially [from ATCC (Manassas, Va., USA) or DSMZ (Braunschweig, Germany)] and grown in RPMI-1640 supplemented with 2 mM glutamine, 1 mM sodium pyruvate and 10% fetal bovine serum and maintained at 37° C. and 5% CO2 in a humid incubator.
(§2) The dilution design of the Fixed Ratio Drug Combination Assay can be seen in FIG. 1. First, the test compounds were prepared as 10 mM stocks in 100% dimethyl sulfoxide (DMSO). Further dilutions of the compounds were made with DMSO. The first test compound (designated as Compound A) is diluted horizontally in a 96 well microtiter plate in rows B-E using a 3-fold dilution series for 10 dilution points. A second test compound (designated as Compound B) is diluted horizontally in a separate 96 well microtiter plate in rows D-G using a 3-fold dilution series for 10 dilution points. The two compounds are combined using equal volumes from each drug plate into cell culture media. […] Compound A is individually titrated in rows B and C, while only Compound B is dosed in rows F and G of the plate. An additional 1:10 dilution of the drugs is performed in cell culture media prior to addition to the cells. Drug addition to the cells results in a further 1:2 dilution of drugs. The total dilution of the drug plate to the cells is […]. The final dosing concentration range for Compound B was 0.1-1000.0 nM and was 0.5-10000.0 nM for Compound A. The positive control consists of culture media with DMSO at 0.1% and cells and no drug. The negative control consists of culture media with DMSO at 0.1%. solution.
(§3) Assays were performed in 96 well microtiter plates with appropriate seeding densities estimated from previous studies of each cell line. Following dosing, the cell lines are incubated at 37° C., 5% CO2 in humid air for 72 hours. Cell proliferation was measured using the CellTiter Glo (Promega Corporation, Madison, Wis., USA) reagent according to the manufacturer's protocol. The plates are treated with CellTiter Glo solution and are analyzed for RLU (relative light units) using a Molecular Devices SpectraMax M5 (Sunnyvale, Calif., USA) plate reader.
(§4) Results are expressed as a percentage of the number of cells present at the time of compound addition value (T0) and plotted against compound(s) concentration. The percent intensity values were used in model 205 of the IDBS XLfit plug-in for Microsoft Excel to calculate gIC50 values using a 4 parameter logistical fit. Background correction is made by subtraction of values from wells containing no cells. The midpoint of the growth window (the gIC50) falls half way between the number of cells at the time of compound addition and the growth of control cells treated with DMSO at 72 hrs. The number of cells at time zero is divided from the intensity value at the bottom of the response curve (Ymin) to generate a measure for cell death (Ymin/T0). A value below 1 for Ymin/T0 indicates stronger potency with the treatment when compared to higher values. For duplicate assays, all response metrics are averaged for presentation.
(§5) Three independent metrics were used to analyze the combinatorial effects on growth inhibition of Compound B and Compound A. • 1. Excess over Highest Single Agent (EOHSA)—One standard criterion for measuring drug combinatorial effects is analyzing the effects on cell growth inhibition in absolute terms. In this case, the combination of drugs is compared to the more responsive of the two individual treatments (single agent). For each combination experiment, the percent effect relative to the highest single agent for each dose along the curve is generated. This measure of “Excess of Highest Single Agent (EOHSA)” is one of the criteria used for evaluating synergy of drug combinations. […]

COLO320DM = conditions: 72 hours; for IC50: Homo sapiens, COLO 320DM, read-out: gIC50
Procedure: as §1, §2, §3, §4, §5

DLD1 = conditions: for Ymin/T0: 72 hours; for IC50: Homo sapiens, DLD-1, 72 hours, read-out: gIC50
Procedure: as §1, §2, §3, §4, §5

HCC2998 = conditions: for Ymin/T0: 72 hours; for IC50: Homo sapiens, HCC 2998, 72 hours, read-out: gIC50
Procedure: as §1, §2, §3, §4, §5

HCT116 = conditions: for Ymin/T0: 72 hours; for IC50: Homo sapiens, HCT-116, 72 hours, read-out: gIC50
Procedure: as §1, §2, §3, §4, §5

HCT15 = conditions: for Ymin/T0: 72 hours; for IC50: Homo sapiens, HCT-15, 72 hours, read-out: gIC50
Procedure: as §1, §2, §3, §4, §5

HCT8 = conditions: for Ymin/T0: 72 hours; for IC50: Homo sapiens, HCT-8, 72 hours, read-out: gIC50
Procedure: as §1, §2, §3, §4, §5

HT29 = conditions: for Ymin/T0: 72 hours; for IC50: Homo sapiens, HT-29, 72 hours, read-out: gIC50
Procedure: as §1, §2, §3, §4, §5

KM12 = conditions: 72 hours; for IC50: Homo sapiens, read-out: gIC50
Procedure: as §1, §2, §3, §4, §5

LS1034 = conditions: for Ymin/T0: 72 hours; for IC50: Homo sapiens, LS-1034, 72 hours, read-out: gIC50
Procedure: as §1, §2, §3, §4, §5

NCIH508 = conditions: for Ymin/T0: 72 hours; for IC50: Homo sapiens, NCI-H508, 72 hours, read-out: gIC50
Procedure: as §1, §2, §3, §4, §5

NCIH716 = conditions: for Ymin/T0: 72 hours; for IC50: Homo sapiens, NCI-H716, 72 hours, read-out: gIC50
Procedure: as §1, §2, §3, §4, §5

NCIH747 = conditions: for Ymin/T0: 72 hours; for IC50: Homo sapiens, NCI-H747, 72 hours, read-out: gIC50
Procedure: as §1, §2, §3, §4, §5

RKO = conditions: 72 hours; for IC50: Homo sapiens, read-out: gIC50
Procedure: as §1, §2, §3, §4, §5

SW1417 = conditions: 72 hours; for IC50: Homo sapiens, read-out: gIC50
Procedure: as §1, §2, §3, §4, §5

SW403 = conditions: for Ymin/T0: 72 hours; for IC50: Homo sapiens, SW-403, 72 hours, read-out: gIC50
Procedure: as §1, §2, §3, §4, §5

SW480 = conditions: 72 hours; for IC50: Homo sapiens, read-out: gIC50
Procedure: as §1, §2, §3, §4, §5

SW48 = conditions: 72 hours; for IC50: Homo sapiens, read-out: gIC50
Procedure: as §1, §2, §3, §4, §5

SW837 = conditions: 72 hours; for IC50: Homo sapiens, read-out: gIC50
Procedure: as §1, §2, §3, §4, §5

SW948 = conditions: 72 hours; for IC50: Homo sapiens, read-out: gIC50
Procedure: as §1, §2, §3, §4, §5

T84 = conditions: 72 hours; for IC50: Homo sapiens, read-out: gIC50
Procedure: as §1, §2, §3, §4, §5

In the case of `CC(C)(C)c1nc(-c2cccc(NS(=O)(=O)c3c(F)cccc3F)c2F)c(-c2ccnc(N)n2)s1` [Compound A, N-{3-[5-(2-amino-4-pyrimidinyl)-2-(1,1-dimethylethyl)-1,3-thiazol-4-yl]-2-fluorophenyl}-2,6-difluorobenzenesulfonamide], the Ymin/T0 (COLO205) is reported as 1.2, the IC50 (COLO205) is reported as 7.3 nM and the Ymin/T0 (COLO320DM) is reported as 4.9. It also gave an IC50 (COLO320DM) of over 10000 nM, a Ymin/T0 (DLD1) of 6.7 and an IC50 (DLD1) of 199 nM. It also gave a Ymin/T0 (HCC2998) of 2.8, an IC50 (HCC2998) of 2400 nM and a Ymin/T0 (HCT116) of 9.2. The IC50 (HCT116) was over 10000 nM, the Ymin/T0 (HCT15) was 6.1 and the IC50 (HCT15) was over 10000 nM. The Ymin/T0 (HCT8) was 9.2, the IC50 (HCT8) was over 10000 nM and the Ymin/T0 (HT29) was 4.0. For the same molecule, the IC50 (HT29) was 17.2 nM, the Ymin/T0 (KM12) was 8.8 and the IC50 (KM12) was over 10000 nM. The Ymin/T0 (LS1034) was 1.9, the IC50 (LS1034) was over 10000 nM and the Ymin/T0 (NCIH508) was 2.1. It also gave an IC50 (NCIH508) of 366 nM, a Ymin/T0 (NCIH716) of 1.3 and an IC50 (NCIH716) of over 10000 nM. For the same molecule, the Ymin/T0 (NCIH747) was 1.3, the IC50 (NCIH747) was over 10000 nM and the Ymin/T0 (RKO) was 6.7. The IC50 (RKO) was 8950 nM, the Ymin/T0 (SW1417) was 1.1 and the IC50 (SW1417) was 246 nM. The Ymin/T0 (SW403) was 2.7, the IC50 (SW403) was over 10000 nM and the Ymin/T0 (SW480) was 2.9. For the same molecule, the IC50 (SW480) was over 10000 nM, the Ymin/T0 (SW48) was 4.7 and the IC50 (SW48) was over 10000 nM. The Ymin/T0 (SW837) was 2.3, the IC50 (SW837) was over 10000 nM and the Ymin/T0 (SW948) was 1.5. It also gave an IC50 (SW948) of over 10000 nM, a Ymin/T0 (T84) of 2.0 and an IC50 (T84) of over 10000 nM.
For `COc1ncc(-c2ccc3nccc(-c4ccnnc4)c3c2)cc1NS(=O)(=O)c1ccc(F)cc1F` [Compound B, 2,4-difluoro-N-{2-(methyloxy)-5-[4-(4-pyridazinyl)-6-quinolinyl]-3-pyridinyl}benzenesulfonamide], the Ymin/T0 (COLO205) was 1.4, the IC50 (COLO205) was 12 nM and the Ymin/T0 (COLO320DM) was 1.5. For the same molecule, the IC50 (COLO320DM) was 4.7 nM, the Ymin/T0 (DLD1) was 1.8 and the IC50 (DLD1) was 20.5 nM. The Ymin/T0 (HCC2998) was 0.9, the IC50 (HCC2998) was 4.7 nM and the Ymin/T0 (HCT116) was 4.1. The IC50 (HCT116) was 34.2 nM, the Ymin/T0 (HCT15) was 2.4 and the IC50 (HCT15) was 7.2 nM. It also gave a Ymin/T0 (HCT8) of 1.6, an IC50 (HCT8) of 8.4 nM and a Ymin/T0 (HT29) of 2.0. It also gave an IC50 (HT29) of 7.4 nM, a Ymin/T0 (KM12) of 1.4 and an IC50 (KM12) of 22.1 nM. It also gave a Ymin/T0 (LS1034) of 0.5, an IC50 (LS1034) of 1.4 nM and a Ymin/T0 (NCIH508) of 0.5. The IC50 (NCIH508) was 1.2 nM, the Ymin/T0 (NCIH716) was 0.7 and the IC50 (NCIH716) was 1.1 nM. The Ymin/T0 (NCIH747) was 0.5, the IC50 (NCIH747) was 2.7 nM and the Ymin/T0 (RKO) was 3.0. For the same molecule, the IC50 (RKO) was 10.9 nM, the Ymin/T0 (SW1417) was 1.3 and the IC50 (SW1417) was 1.4 nM. It also gave a Ymin/T0 (SW403) of 0.5, an IC50 (SW403) of 1.5 nM and a Ymin/T0 (SW480) of 1.1. For the same molecule, the IC50 (SW480) was 5.4 nM, the Ymin/T0 (SW48) was 0.4 and the IC50 (SW48) was 2.6 nM. It also gave a Ymin/T0 (SW837) of 0.8, an IC50 (SW837) of 6.4 nM and a Ymin/T0 (SW948) of 0.4. The IC50 (SW948) was 0.3 nM, the Ymin/T0 (T84) was 0.7 and the IC50 (T84) was 6 nM.
